One test addresses PIP4K2A (Homo sapiens, UniProt P48426). As to the kind of experiment: ADP-Glo kinase assay with purified PIP4K2A and PI([…])P. It is filed as biochemical. (In general: ADP-Glo turns the ADP formed in a reaction into a luminescent signal.)
In the next test the target is T1, Ferrochelatase (Homo sapiens, UniProt P22830).
T1 construct: gene FECH
As to the kind of experiment: MS-CETSA thermal shift in normal BJ cell lysate, […] compound (off-target hit). It is filed as cell-based.

The target of a further test is PIP4K2C (Homo sapiens, UniProt Q8TBX8). As to the kind of experiment: MS-CETSA thermal shift in normal BJ cell lysate, […] compound. The class given is cell-based.
Sequence of PIP4K2C (Q8TBX8 2-421): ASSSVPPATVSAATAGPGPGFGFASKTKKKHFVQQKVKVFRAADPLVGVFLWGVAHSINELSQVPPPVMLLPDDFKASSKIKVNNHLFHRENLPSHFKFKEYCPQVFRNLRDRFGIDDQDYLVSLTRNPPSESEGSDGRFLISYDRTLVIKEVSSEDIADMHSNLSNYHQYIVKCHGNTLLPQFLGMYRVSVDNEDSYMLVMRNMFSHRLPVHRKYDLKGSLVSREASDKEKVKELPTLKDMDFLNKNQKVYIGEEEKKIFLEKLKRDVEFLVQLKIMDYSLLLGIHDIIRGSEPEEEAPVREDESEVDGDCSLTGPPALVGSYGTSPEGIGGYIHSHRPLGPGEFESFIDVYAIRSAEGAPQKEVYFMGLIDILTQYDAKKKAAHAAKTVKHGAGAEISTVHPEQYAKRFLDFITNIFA
The next test has as its system A549. As to the kind of experiment: cells. Particulars: Homo sapiens, A549; cancer cells, 72 h MTT. Details: MTT cell viability/proliferation assay, absorbance 540 minus 660 nm, GI50 by non-linear regression. As to the method:
(§1) Cells were plated in 96-well microplates on day 0, and a131 was added to each well on day 1 at a range of different concentrations (from 0.1 to 40 μM) in triplicate. After 3 days of culture, the number of viable cells was determined using MTT cell proliferation assays by adding thiazolyl blue tetrazolium bromide (MTT reagent, Invitrogen) at a concentration of 0.5 mg/ml to each well and incubating for 4 h at 37 °C. The medium was then removed, and the blue dye remaining in each well was dissolved in DMSO by mixing with a microplate mixer. The absorbance of each well was measured at 540 and 660 nm using a microplate reader (Benchmark plus, Bio-Rad). Optical density (OD) values were calculated by subtracting the absorbance at 660 nm from the absorbance at 540 nm. Mean OD values from control cells containing only DMSO-treated wells were set as 100% viable. […] Mean values with ± standard deviation (S.D.) are shown (n = 3). c, d Normal and transformed BJ cells were treated with a131 at 2.5 μM for 48 h. c FACS analysis using BrdU and PI double staining of the indicated cells. Percentages of BrdU-positive (S) population indicating cell cycle arrest and subG1 (<2N) population indicating cell death are shown. Representative FACS analysis shown (n = 3). d Immunoblot analysis of cleaved PARP and caspase-3 (Cas-3) indicating a131-induced apoptosis in transformed BJ cells (lanes 5, 6), but not normal counterparts (lanes 2, 3). Representative immunoblots shown (n = 3). e MTT assay of human normal and cancer cell lines treated with a131 for 72 h (n = 3). Mean concentration values for a131 to achieve 50% growth inhibition (GI50) in each cell line are plotted with ± S.D. f FACS analysis of a series of engineered BJ-derived fibroblasts treated with a131 at 5 µM for 48 h. Mean values of subG1 (<2N) population ± S.D. are shown (n > 3). g, h Normal and transformed BJ cells stably expressing GFP-histone H2B were treated with a131 at 2.5 μM for 32 h prior to fixation. g Immunofluorescence analysis with representative images (n = 3). h Quantification of cells (n > 100 per condition) with the indicated centrosome numbers. Mean values ± S.D. are shown (n = 3). i Mice bearing established tumor xenografts were treated orally (PO) or intraperitoneally (IP) twice daily with the indicated doses of a131 or its derivative b5. Tumor volumes were calculated periodically as indicated. Paclitaxel (PTX) was administered intravenously for twice every 4 days. Mean tumor volumes ± S.D. from six mice are shown. Two-way ANOVA was performed to determine statistical significance compared to vehicle control. j, k TUNEL staining (j) or immu

The next test relates to AGS. As to the kind of experiment: cells. Details: MTT cell viability/proliferation assay, absorbance 540 minus 660 nm, GI50 by non-linear regression. As to conditions: Homo sapiens, AGS; cancer cells, 72 h MTT. The protocol:
as §1

The next test has as its system HCT116. As to the kind of experiment: cells. Further details: MTT cell viability/proliferation assay, absorbance 540 minus 660 nm, GI50 by non-linear regression. Particulars: Homo sapiens, HCT-116; cancer cells, 72 h MTT. The protocol: as §1
For the next test, the system named is HCT15. As to the kind of experiment: cells. As to conditions: Homo sapiens, HCT-15; cancer cells, 72 h MTT. Further details: MTT cell viability/proliferation assay, absorbance 540 minus 660 nm, GI50 by non-linear regression. The protocol:
as §1

The next test concerns HGC27. As to the kind of experiment: cells. Further details: MTT cell viability/proliferation assay, absorbance 540 minus 660 nm, GI50 by non-linear regression. Particulars: Homo sapiens, HGC-27; cancer cells, 72 h MTT. As to the method: as §1
Another test relates to HT29. As to the kind of experiment: cells. Details: MTT cell viability/proliferation assay, absorbance 540 minus 660 nm, GI50 by non-linear regression. Particulars: Homo sapiens, HT-29; cancer cells, 72 h MTT. As to the method: as §1
For a further test, the system named is HeLa. As to the kind of experiment: cells. Further details: MTT cell viability/proliferation assay, absorbance 540 minus 660 nm, GI50 by non-linear regression. As to conditions: Homo sapiens, HeLa; cancer cells, 72 h MTT. As to the method:
as §1

The subject of a further test is Huh7. As to the kind of experiment: cells. Details: MTT cell viability/proliferation assay, absorbance 540 minus 660 nm, GI50 by non-linear regression. Particulars: Homo sapiens, Huh-7; cancer cells, 72 h MTT. The protocol: as §1
A further test deals with IM95. As to the kind of experiment: cells. Further details: MTT cell viability/proliferation assay, absorbance 540 minus 660 nm, GI50 by non-linear regression. Particulars: Homo sapiens, IM95; cancer cells, 72 h MTT. The protocol:
as §1

A further test deals with MCF7. As to the kind of experiment: cells. Details: MTT cell viability/proliferation assay, absorbance 540 minus 660 nm, GI50 by non-linear regression. Particulars: Homo sapiens, MCF7; cancer cells, 72 h MTT. As to the method:
as §1

Another test has as its system MDA-MB-231. As to the kind of experiment: cells. Further details: MTT cell viability/proliferation assay, absorbance 540 minus 660 nm, GI50 by non-linear regression. As to conditions: Homo sapiens, MDA-MB-231; cancer cells, 72 h MTT. The protocol: as §1
The next test relates to NCC24. As to the kind of experiment: cells. Further details: MTT cell viability/proliferation assay, absorbance 540 minus 660 nm, GI50 by non-linear regression. Particulars: cancer cells, 72 h MTT. As to the method: as §1
The test system of another test is NCC59. As to the kind of experiment: cells. Details: MTT cell viability/proliferation assay, absorbance 540 minus 660 nm, GI50 by non-linear regression. Particulars: cancer cells, 72 h MTT. As to the method:
as §1

The next test deals with NUGC3. As to the kind of experiment: cells. Details: MTT cell viability/proliferation assay, absorbance 540 minus 660 nm, GI50 by non-linear regression. Particulars: Homo sapiens, NUGC-3; cancer cells, 72 h MTT. The protocol: as §1
The subject of the next test is SNU-16. As to the kind of experiment: cells. Details: MTT cell viability/proliferation assay, absorbance 540 minus 660 nm, GI50 by non-linear regression. Particulars: Homo sapiens, SNU-16; cancer cells, 72 h MTT. As to the method: as §1
The next test relates to SNU1750. As to the kind of experiment: cells. Details: MTT cell viability/proliferation assay, absorbance 540 minus 660 nm, GI50 by non-linear regression. Particulars: cancer cells, 72 h MTT. As to the method: as §1
A further test deals with SNU1. As to the kind of experiment: cells. Further details: MTT cell viability/proliferation assay, absorbance 540 minus 660 nm, GI50 by non-linear regression. As to conditions: Homo sapiens, SNU1; cancer cells, 72 h MTT. As to the method:
as §1

The next test has as its system SNU449. As to the kind of experiment: cells. Details: MTT cell viability/proliferation assay, absorbance 540 minus 660 nm, GI50 by non-linear regression. As to conditions: Homo sapiens, SNU-449; cancer cells, 72 h MTT. As to the method: as §1
The subject of a further test is SNU620. As to the kind of experiment: cells. Further details: MTT cell viability/proliferation assay, absorbance 540 minus 660 nm, GI50 by non-linear regression. Particulars: SNU620; cancer cells, 72 h MTT. The protocol:
as §1

SMILES strings stand for the structures.

Sequence of PIP4K2A (P48426 2-406): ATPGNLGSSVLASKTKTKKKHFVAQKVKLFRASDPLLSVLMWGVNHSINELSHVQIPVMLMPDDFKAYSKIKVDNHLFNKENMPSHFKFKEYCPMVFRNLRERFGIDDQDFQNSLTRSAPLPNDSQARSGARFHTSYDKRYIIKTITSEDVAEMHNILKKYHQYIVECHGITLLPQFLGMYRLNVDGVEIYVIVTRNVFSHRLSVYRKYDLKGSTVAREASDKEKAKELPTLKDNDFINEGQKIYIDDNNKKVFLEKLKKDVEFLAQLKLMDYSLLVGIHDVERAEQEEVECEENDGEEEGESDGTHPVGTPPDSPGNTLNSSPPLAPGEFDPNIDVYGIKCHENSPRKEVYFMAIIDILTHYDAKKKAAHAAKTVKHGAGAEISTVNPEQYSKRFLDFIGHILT
T1 sequence (P22830 55-423): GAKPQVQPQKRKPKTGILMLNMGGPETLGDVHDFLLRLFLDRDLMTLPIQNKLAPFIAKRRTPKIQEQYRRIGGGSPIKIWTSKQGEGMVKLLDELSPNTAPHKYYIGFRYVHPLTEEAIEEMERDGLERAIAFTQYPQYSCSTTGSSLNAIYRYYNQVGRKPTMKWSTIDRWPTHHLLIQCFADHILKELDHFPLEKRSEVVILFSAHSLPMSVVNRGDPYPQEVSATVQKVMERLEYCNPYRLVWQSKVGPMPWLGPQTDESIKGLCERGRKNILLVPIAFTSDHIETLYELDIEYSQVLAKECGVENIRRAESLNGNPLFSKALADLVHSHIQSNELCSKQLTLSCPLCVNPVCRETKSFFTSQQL

In turn, `COc1cc(/C=C(\C#N)C(=O)c2ccc(O)c(O)c2)cc(I)c1O` [I-OMe-AG-538] gave an IC50 against PIP4K2A of 2100 nM.
For the molecule `N#C/C(=C\c1cccc2cnccc12)c1c[nH]c2ccccc12` [a131], the “MS-CETSA thermal shift in normal BJ cell lysate, 100 μM compound (off-target hit)” value at Ferrochelatase is “Ferrochelatase in a131 and coproporphyrinogen-III oxidase in a166 were identified as prominent hits”. For the same molecule, the “MS-CETSA thermal shift in normal BJ cell lysate, 100 μM compound” value on PIP4K2C is “two out of the three family members (PIP4K2A and 2C) in a131”. Moreover, the GI50 was 1970 nM with A549; 1130 nM in the test on AGS; 1840 nM with HCT116; 545 nM with HCT15; 1170 nM with HGC27; 915 nM with HT29. Moreover, the GI50 is 1440 nM in the test on HeLa; 1180 nM in the test with Huh7; 1040 nM in the test with IM95; 1240 nM with MCF7; 1140 nM with MDA-MB-231; 1230 nM in the test on NCC24. In addition, the GI50 in the test with NCC59 is 944 nM; in the test with NUGC3, 1040 nM; in the test with SNU-16 it was 982 nM; in the test with SNU1750, 747 nM; in the test on SNU1, 919 nM; with SNU449, 2270 nM. In the test on SNU620, this molecule displayed a GI50 of 982 nM.

As usually defined, the IC50 is the concentration needed to halve the response being measured. High values mean a need for much substance, low ones inhibition by little substance. As a reminder, the GI50 is the concentration giving 50% growth inhibition. High values mean lower sensitivity of the cells, low ones greater sensitivity of the cells.

These data come from publication PMC5736559, “Dual blockade of the lipid kinase PIP4Ks and mitotic pathways leads to cancer-selective lethality” (Nature Communications, 2017).
